From PubChem BioAssay (NCI) come the findings set out here.

The structures appear in SMILES notation.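 In this assay, cells in 96-well plates receive the compound at five concentrations for 48 hours. Endpoints are linearly interpolated between the surrounding concentrations. GI50: concentration for 50% inhibition of growth. TGI: concentration producing complete growth inhibition.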

Assay in all cases: inhibition of tumour cell growth, NCI panel, 48 h
The test system of assay [1] is SK-MEL-28 melanoma.
In assay [2] the test system is HCC-2998 colon.
Assay [3] has as its system HCT-15 colon.
Assay [4] deals with CAKI-1 renal.
The subject of assay [5] is SK-MEL-2 melanoma.
For assay [6], the system named is TK-10 renal.
For assay [7], the system named is HT29 colon.
Assay [8] deals with NCI/ADR-RES ovarian.
For assay [9], the system named is NCI-H23 lung.
Assay [10] relates to U251 CNS.
Assay [11] deals with LOX IMVI melanoma.

In the case of `NCCCn1c2c(c3ccc([N+](=O)[O-])cc3c1=O)C(=O)c1cc(F)ccc1-2`, the GI50 in [1] is 0.229 µM; in [2], 0.0367 µM; in [3] it was 0.0595 µM; in [4], 0.0498 µM; in assay [5], 0.326 µM; in assay [6], 0.372 µM. The GI50 in assay [7] is below 0.0153 µM; in [8], 0.0412 µM. Besides, the TGI in assay [1] came to 1.54 µM; in assay [2] it was 0.233 µM; in [3], 0.647 µM; in [4], 0.266 µM; in assay [5], 1.05 µM; in assay [6] it was 2.7 µM. Also, the figures for the TGI in assay [7] and in assay [8] were 0.515 µM and 1.2 µM, respectively.
Regarding `CCP(=O)(CC)C(Cl)(Cl)C(O)C(Cl)(Cl)Cl` (configuration not stated), the TGI in assay [9], in assay [10], in assay [1], in assay [2], in [11] and in assay [3] was above 100 µM each time. The TGI in [4], in [5], in assay [6], in assay [7] and in assay [8] was above 100 µM each time.
Consider `O=C1/C(=C/c2ccc(Cl)cc2)N=C(c2ccccc2)N1/N=C/c1ccccc1O`, for which the TGI in assay [9] was above 100 µM; in assay [10], 18.6 µM; in assay [1] it was 62.9 µM; in assay [11], 31.4 µM; in [3], above 100 µM; in assay [4], 22.3 µM. Further, the TGI is 46.3 µM in assay [5], 12.6 µM in assay [6], above 100 µM in assay [7] and 97.6 µM in assay [8].
Regarding `CN1C(=O)CN2C(Cl)(Cl)C2(c2ccccc2)c2cc(Cl)ccc21` (configuration not stated), the TGI in assay [9], in assay [10], in assay [1], in [2], in assay [11] and in [3] was above 100 µM each time. Further, the TGI in [4], in assay [5], in [6] and in [7] was above 100 µM each time.
